Reference: patent US20250042924A1, “WATER-SOLUBLE PHYTIN” (OTSUKA PHARMACEUTICAL CO., LTD., priority 2021, published 2025)

Tests used:
[1] = system: rat small intestine powder (enzyme solution); test: Test Example 2 purine nucleotide metabolism inhibitory activity (inosine monophosphate substrate, HPLC); format: biochemical; conditions: 37° C., 30 minutes
Procedure: Ca(OH)2 (Inoue Calcium Corporation) as a calcium source, Mg(OH)2 (Tomita Pharmaceutical Co., Ltd.) as a magnesium source, KOH (NIPPON SODA CO., LTD.) as a potassium source, NaOH (Tosoh Corporation) as a sodium source were placed in a 50 mL PP tube (IWAKI) at molar ratios of the minerals shown in Table 2. Then a commercially available phytic acid solution (product name: phytic acid (IP6), TSUNO Food Industrial co., ltd.) 0.426 mL (containing 0.296 g of phytic acid) was placed therein. Distilled water (Otsuka Pharmaceutical Factory, Inc.) was added thereto to make up the volume to 30 mL. The mixture was stirred for 30 seconds using a vortex mixer, followed by ultrasonication (ASONE) for 60 seconds to prepare a test solution containing phytin with various mineral compositions.
As a positive control, a test solution containing a commercially available phytin (phytin (IP6), TSUNO Food Industrial co., ltd.) was prepared at the same concentration of phytic acid as the other test solutions.
A 100 mg/mL of solution of rat small intestine powder (Clare Japan, Inc.) in the assay buffer was used as an enzyme solution. Inosine monophosphate (Sigma-Aldrich) was diluted with the assay buffer to the concentration of 9 mM to prepare a substrate solution. Enzymatic reaction was performed using a 96 well plate (Thermo Fisher Scientific) in the following manner. […]

[2] = Test Example 4 stability (deliquescence); format: physicochemical; design: key: “Deliquesced” refers to a change where the sample completely liquefied to become starch syrup-like; “Partially-deliquesced” refers to a change where a part of the sample deliquesced or solidified.; “No change” refers to a no change in state of the sample; conditions: 200 mg, 25° C., humidity 75.3%, 64 hours
Procedure: Ca(OH)2 (Inoue Calcium Corporation) as a calcium source, Mg(OH)2 (Tomita Pharmaceutical Co., Ltd.) as a magnesium source, KOH (NIPPON SODA CO., LTD.) as a potassium source, NaOH (Tosoh Corporation) as a sodium source were placed in a 50 mL PP tube (IWAKI) at the molar ratios of minerals shown in Table 3. Then a commercially available phytic acid solution (product name: phytic acid (IP6), TSUNO Food Industrial co., ltd.) 0.426 mL (containing 0.296 g of phytic acid) was placed therein. Distilled water (Otsuka Pharmaceutical Factory, Inc.) was added thereto to make up the volume to 30 mL. The mixture was stirred for 30 seconds using a vortex mixer, followed by ultrasonication (ASONE) for 60 seconds. This operation of stirring and ultrasonication was repeated three times in total. Then the mixture was adjusted to pH 4.0±0.2 with hydrochloric acid and pre-frozen at −80° C. The pre-frozen mixture was freeze-dried by using a freeze dryer to provide a completely powdered phytin. The completely powdered phytin was used as a sample.
As positive controls, a sample of phytic acid (powder) prepared following the above procedure without adding any mineral component, and a commercially available phytic acid powder product (product name: Powdered phytic acid, FUSO CHEMICAL CO., LTD.) were used. […]

Structure (SMILES): O=P(O)(O)O[C@H]1[C@H](OP(=O)(O)O)[C@@H](OP(=O)(O)O)[C@H](OP(=O)(O)O)[C@@H](OP(=O)(O)O)[C@H]1OP(=O)(O)O [Phytic acid (PA), phytic acid]
- enzyme inhibitory activity [1]: around 30%
- Deliquescence [2]: Deliquesced
- Deliquescence ([2]; listed as phytic acid sample): deliquesced
